{"source": "patent US20250277066A1", "about": "“Substituted Pyridine-2,6-Bis(Phenylenephenolate) Complexes with Enhanced Solubility that are Useful as Catalyst Components for Olefin Polymerization” (ExxonMobil Chemical Patents Inc., priority 2022, published 2025)", "format_in_all_cases": "physicochemical", "key": {"[1]": {"assay": "DSC melting point of polymers (TA-Q100)", "experimental": "Differential Scanning Calorimetry (DSC) measurements were performed on a TA-Q100 instrument to determine the melting point of the polymers. Samples were pre-annealed at 220° C. for 15 minutes and then allowed to cool to room temperature overnight. The samples were then heated to 220° C. at a rate of 100° C./minute and then cooled at a rate of 50° C./minute. Melting points were collected during the heating period. The results are reported in the Table 2 under the heading, Tm (° C.)."}, "[2]": {"assay": "Rapid GPC of polymers (Mn, Mw, Mz, PDI)", "design": "Mn / Mw / Mz: unit not given here", "experimental": "For analytical testing, polymer sample solutions were prepared by dissolving polymer in 1,2,4-trichlorobenzene (TCB, 99+% purity from Sigma-Aldrich) containing 2,6-di-tert-butyl-4-methylphenol (BHT, 99% from Aldrich) at 165° C. in a shaker oven for approximately 3 hours. The typical concentration of polymer in solution was between 0.1 to 0.9 mg/mL with a BHT concentration of 1.25 mg BHT/mL of TCB. Samples were cooled to 135° C. for testing.\nHigh temperature size exclusion chromatography was performed using an automated “Rapid GPC” system as described in U.S. Pat. Nos. 6,491,816; 6,491,823; 6,475,391; 6,461,515; 6,436,292; 6,406,632; 6,175,409; 6,454,947; 6,260,407; and 6,294,388; each of which is incorporated herein by reference. Molecular weights (weight average molecular weight (Mw), number average molecular weight (Mn) and z average molecular weight (Mz)) and molecular weight distribution (MWD=Mw/Mn), which is also sometimes referred to as the polydispersity (PDI) of the polymer, were measured by Gel Permeation Chromatography using a Symyx Technology GPC equipped with evaporative light scattering detector (ELSD) and calibrated using polystyrene standards (Polymer Laboratories: Polystyrene Calibration Kit S-M-10: Mp (peak Mw) between 5,000 and 3,390,000). Alternatively, samples were measured by Gel Permeation Chromatography using a Symyx Technology GPC equipped with dual wavelength infrared detector and calibrated using polystyrene standards (Polymer Laboratories: Polystyrene Calibration Kit S-M-10: Mp (peak Mw) between 580 and 3,039,000). […] No column spreading corrections were employed. Numerical analyses were performed using Epoch® software available from Symyx Technologies or Automation Studio software available from Freeslate. The molecular weights obtained are relative to linear polystyrene standards. Molecular weight data is reported in Table 2 under the headings Mn, Mw, Mz and PDI as defined above."}, "[3]": {"assay": "Solubility of complexes in isohexane (Method 1 or Method 2)", "conditions": "ambient temperature (20° C.-25° C.), mass includes residual solvent", "experimental": "Solubility studies for all other complexes were performed using material as synthesized. […] Solvents used were sparged with nitrogen (30-60 minutes) and dried over 3 Å mole sieves. Unless stated otherwise all measurements were performed at ambient temperature (20° C.-25° C.).\nGeneral procedure: Solubility was determined using the following Method 1 or Method 2. For calculations, a value of 0.672 g/mL was used for the density of isohexane.\nMethod 1: A tared vial was loaded with a small amount of the complex (actual mass recorded, including any residual solvent as noted above, typically 5-30 mg). Then a small stir bar (8 mm) was added. Solvent was then added and the mixture was stirred rapidly (1000 rpm). […] This process was repeated until either a clear solution was obtained (no visible solids or murkiness) or the vial was full. As the mixture approached homogeneity (i.e., few remaining solids observed) the volume of the solvent additions was kept small (<1 mL) to minimize excess beyond the solvent required to achieve homogeneity. The stir bar was then removed and the mass of the mixture was measured. If a clear solution had formed then the solubility of the complex was calculated as a single value, based on the mass of complex and the amount of solvent added to achieve a homogeneous solution. If the mixture remained heterogeneous (visible solids or murky), then the value reported is given as being “less than” the calculated value.\nMethod 2: A measured amount of complex (actual mass recorded, including any residual solvent as noted above) was added to a tared vial, followed by a stir bar. Dry isohexanes were added in small portions and the resulting mixture was stirred after each portion of isohexanes. If a clear solution had formed then the solubility was reported as a range, the lower bound of solubility calculated using the total solvent added to achieve a homogenous solution and the upper bound of solubility calculated using the total solvent measured prior to achieving a homogenous solution. If the mixture remained heterogeneous (visible solids or murky), the upper bound of solubility was calculated using the total solvent added. Formula used to calculate solubility are listed below. Solvent present in the complex is included in the mass and formula weight of the complexes."}, "[4]": {"conditions": "polypropylene made with activator A at 70° C."}, "[5]": {"conditions": "polypropylene made with activator A at 100° C."}, "[6]": {"conditions": "polypropylene made with activator B at 70° C."}, "[7]": {"conditions": "polypropylene made with activator B at 100° C."}, "[8]": {"conditions": "polymer made with activator A, T 70 ° C."}, "[9]": {"conditions": "polymer made with activator A, T 100 ° C."}, "[10]": {"conditions": "polymer made with activator B, T 70 ° C."}, "[11]": {"conditions": "polymer made with activator B, T 100 ° C."}}, "note": "Several values for one entry are separate records, joined by “and”; a condition that tells them apart may be missing. Equal entries are not always repeated.", "data": [{"smiles": "CC(C)(C)c1cc2c(c(C34CC5CC(CC(C5)C3)C4)c1)[O][Zr-]1([CH3])([CH3])[O]c3c(cc(C(C)(C)C)cc3C34CC5CC(CC(C5)C3)C4)-c3ccccc3-c3cccc([n+]31)-c1ccccc1-2", "note": "[Complex 2]", "values": [{"measurement": "Tm", "setting": "[1]; [4]", "value": "147.1 °C and 148.3 °C"}, {"measurement": "Tm", "setting": "[1]; [5]", "value": "147.6 °C and 145.6 °C and 146.6 °C"}, {"measurement": "Tm", "setting": "[1]; [6]", "value": "148.8 °C and 149.3 °C and 148.6 °C"}, {"measurement": "Tm", "setting": "[1]; [7]", "value": "148.0 °C and 147.3 °C"}, {"measurement": "Mn", "setting": "[2]; [4]", "value": "51,771 and 73,251 and 79,137"}, {"measurement": "Mw", "setting": "[2]; [4]", "value": "409,655 and 422,884 and 427,915"}, {"measurement": "Mz", "setting": "[2]; [4]", "value": "1,643,708 and 1,794,768 and 1,704,507"}, {"measurement": "PDI", "setting": "[2]; polypropylene made with activator A at 70° C., Mw/Mn", "value": "7.91 and 5.77 and 5.41"}, {"measurement": "Mw", "setting": "[2]; [5]", "value": "157,755 and 118,735 and 149,968"}, {"measurement": "Mz", "setting": "[2]; [5]", "value": "608,816 and 547,511 and 649,731"}, {"measurement": "PDI", "setting": "[2]; polypropylene made with activator A at 100° C., Mw/Mn", "value": "3.82 and 5.79 and 4.78"}, {"measurement": "Mn", "setting": "[2]; [6]", "value": "142,243 and 146,842 and 153,727"}, {"measurement": "Mw", "setting": "[2]; [6]", "value": "528,329 and 583,343 and 515,347"}, {"measurement": "Mz", "setting": "[2]; [6]", "value": "1,786,121 and 2,112,818 and 1,774,716"}, {"measurement": "PDI", "setting": "[2]; polypropylene made with activator B at 70° C., Mw/Mn", "value": "3.71 and 3.97 and 3.35"}, {"measurement": "Mn", "setting": "[2]; [7]", "value": "63,491 and 54,833 and 47,288"}, {"measurement": "Mw", "setting": "[2]; [7]", "value": "180,083 and 161,679 and 169,722"}, {"measurement": "Mz", "setting": "[2]; [7]", "value": "621,548 and 531,840 and 733,298"}, {"measurement": "PDI", "setting": "[2]; polypropylene made with activator B at 100° C., Mw/Mn", "value": "2.84 and 2.95 and 3.59"}, {"measurement": "Solubility (s) in Isohexane (wt %)", "setting": "[3]", "value": 0.081, "unit": "wt %"}]}, {"smiles": "Cc1cc2[n+]3c(c1)-c1ccccc1-c1cc(C(C)(C)C)cc(C45CC6CC(CC(C6)C4)C5)c1[O][Zr-]3([CH3])([CH3])[O]c1c(cc(C(C)(C)C)cc1C13CC4CC(CC(C4)C1)C3)-c1ccccc1-2", "note": "[Complex 3]", "values": [{"measurement": "Tm", "setting": "[1]; [8]", "value": "150.4 °C and 150.9 °C"}, {"measurement": "Tm", "setting": "[1]; [9]", "value": "149.4 °C and 148.1 °C and 150.1 °C"}, {"measurement": "Tm", "setting": "[1]; [10]", "value": "150.5 °C and 150.9 °C"}, {"measurement": "Tm", "setting": "[1]; [11]", "value": "148.9 °C and 149.8 °C"}, {"measurement": "Mn", "setting": "[2]; [8]", "value": "151,894 and 189,341"}, {"measurement": "Mw", "setting": "[2]; [8]", "value": "555,461 and 618,660"}, {"measurement": "Mz", "setting": "[2]; [8]", "value": "2,204,591 and 1,998,977"}, {"measurement": "PDI", "setting": "[2]; [8]", "value": "3.66 and 3.27"}, {"measurement": "Mn", "setting": "[2]; [9]", "value": "97,418 and 70,184 and 116,079"}, {"measurement": "Mw", "setting": "[2]; [9]", "value": "211,821 and 182,436 and 245,630"}, {"measurement": "Mz", "setting": "[2]; [9]", "value": "590,904 and 640,309 and 691,819"}, {"measurement": "PDI", "setting": "[2]; [9]", "value": "2.17 and 2.60 and 2.12"}, {"measurement": "Mn", "setting": "[2]; [10]", "value": "251,087 and 247,428 and 294,324"}, {"measurement": "Mw", "setting": "[2]; [10]", "value": "611,739 and 605,320 and 723,438"}, {"measurement": "Mz", "setting": "[2]; [10]", "value": "1,641,465 and 1,654,930 and 2,228,894"}, {"measurement": "PDI", "setting": "[2]; [10]", "value": "2.44 and 2.45 and 2.46"}, {"measurement": "Mn", "setting": "[2]; [11]", "value": "136,672 and 115,932 and 136,724"}, {"measurement": "Mw", "setting": "[2]; [11]", "value": "263,279 and 217,696 and 285,817"}, {"measurement": "Mz", "setting": "[2]; [11]", "value": "693,703 and 504,146 and 859,182"}, {"measurement": "PDI", "setting": "[2]; [11]", "value": "1.93 and 1.88 and 2.09"}, {"measurement": "Solubility (s) in Isohexane", "setting": "[3]", "value": "<3.2", "unit": "mM"}, {"measurement": "Solubility (s) in Isohexane (wt %)", "setting": "[3]", "value": "<0.5", "unit": "wt %"}]}]}
